Test results from ChEMBL document CHEMBL1130721, “Design and synthesis of novel conformationally restricted HIV protease inhibitors” (Bioorg Med Chem Lett, 1998).
pKi: −log10 of the molar value.

Target: Human immunodeficiency virus type 1 protease (Human immunodeficiency virus 1, UniProt Q72874)
Experiment: Compound was assayed for inhibition against HIV protease activity

| SMILES | pKi |
| --- | --- |
| COc1ccc(S(=O)(=O)N(CC2CCCC2)C[C@@H](O)CN2C(=O)N(Cc3ccccc3)C[C@@H]2Cc2ccccc2)cc1 | 7.82 |
| COc1ccc(S(=O)(=O)N(CC2CCCC2)C[C@@H](O)CN2C(=O)COC[C@@H]2Cc2ccccc2)cc1 | 6.00 |
| COc1ccc(S(=O)(=O)N(CC2CCCC2)C[C@@H](O)CN2C(=O)[C@@H](Cc3ccccc3)C[C@@H]2Cc2ccccc2)cc1 | 9.30 |
| COc1ccc(S(=O)(=O)N(CC2CCCC2)C[C@@H](O)CN2C(=O)CNC[C@@H]2Cc2ccccc2)cc1 | 5.52 |
| COc1ccc(S(=O)(=O)N(CC2CCCC2)C[C@@H](O)CN2C(=O)OC[C@@H]2Cc2ccccc2)cc1 | 5.82 |
| COc1ccc(S(=O)(=O)N(CC2CCCC2)C[C@@H](O)CN2C(=O)C3(CCCCC3)NC[C@@H]2Cc2ccccc2)cc1 | 7.77 |
